Assays:
hairy beggarticks = test: Test E postemergence; type: in vivo, Bidens pilosa; details: Bidens pilosa, post-emergence, read-out: Plant response rating, Beggarticks
How it was run: (§1)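 Response was scored visually on a 0-100 scale (100 = complete control) versus controls after 14 to 21 days in the greenhouse. Test chemicals, formulated with surfactant in a non-phytotoxic solvent mixture, had been applied preemergence to seeds in silt loam soil or postemergence to 1- to 4-leaf plants in potting medium.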

pigweed = test: Test D preemergence; type: in vivo, Amaranthus retroflexus; details: Amaranthus retroflexus, pre-emergence
How it was run: (§2)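 Visual ratings from 0 (no effect) to 100 (complete control) relative to untreated plants were taken 7–21 days after treatment. Chemicals in a surfactant-containing solvent mixture were applied preemergence to seeds in silt loam, or postemergence to plants 2–18 cm tall (1–4 leaves) grown in a peat-based potting medium.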

chickweed [1] = test: Test D postemergence; type: in vivo, Stellaria media; details: Stellaria media, post-emergence
How it was run: as §2

chickweed [2] = test: Test D preemergence; type: in vivo, Stellaria media; details: Stellaria media, pre-emergence
How it was run: as §2

field bindweed = test: Test E postemergence; type: in vivo, Convolvulus arvensis; details: Convolvulus arvensis, post-emergence, read-out: Plant response rating, Field Bindweed
How it was run: as §1

field poppy = test: Test D preemergence; type: in vivo, Papaver rhoeas; details: Papaver rhoeas, pre-emergence
How it was run: as §2

winter barley = test: Test D postemergence; type: in vivo, Hordeum vulgare; details: Hordeum vulgare, post-emergence, Postemergence, scale 0 to 100 (0 no effect, 100 complete control), read-out: Plant response rating, Barley, Winter
How it was run: as §2

spring barley [3] = test: Test D postemergence; type: in vivo, Hordeum vulgare; details: Hordeum vulgare, post-emergence, Postemergence, scale 0 to 100 (0 no effect, 100 complete control), read-out: Plant response rating, Barley, Spring
How it was run: as §2

wild buckwheat = test: Test D preemergence; type: in vivo, Polygonum convolvulus; details: Fallopia convolvulus, pre-emergence
How it was run: as §2

barnyardgrass = test: Test E postemergence; type: in vivo, Echinochloa crus-galli; details: Echinochloa crus-galli, post-emergence, read-out: Plant response rating, Barnyardgrass
How it was run: as §1

spring barley [4] = test: Test D preemergence; type: in vivo, Hordeum vulgare; details: Hordeum vulgare, pre-emergence
How it was run: as §2

wild oat = test: Test D postemergence; type: in vivo, Avena fatua; details: Avena fatua, post-emergence
How it was run: as §2

[5] = Postemergence, 31 g ai/ha, scale 0 to 100
[6] = Postemergence, 62 g ai/ha, scale 0 to 100
[7] = Postemergence, 125 g ai/ha, scale 0 to 100
[8] = postemergence, 8 g ai/ha, scale 0 to 100, 0 no effect, 100 complete control
[9] = postemergence, 16 g ai/ha, scale 0 to 100, 0 no effect, 100 complete control

Question: Which results are given for Clc1cnc(Oc2ccccc2-n2cc(Br)cn2)nc1 [Compound 7, 2-[2-(4-bromo-1H-pyrazol-1-yl)phenoxy]-5-chloropyrimidine]?
Answer: pest or weed control at 31 g/ha (hairy beggarticks; [5]): 40%; pest or weed control at 62 g/ha (hairy beggarticks; [6]): 50%; pest or weed control at 125 g/ha (hairy beggarticks; [7]): 60%; pest or weed control at 8 g/ha (hairy beggarticks; [8]): 25%; pest or weed control at 16 g/ha (hairy beggarticks; [9]): 35%; pest or weed control at 16 g/ha (pigweed; 16 g ai/ha, scale 0 (no effect) to 100 (complete control), read-out: Plant response rating, Pigweed): 0%; pest or weed control at 31 g/ha (pigweed; 31 g ai/ha, scale 0 (no effect) to 100 (complete control), read-out: Plant response rating, Pigweed): 30%; pest or weed control at 62 g/ha (pigweed; 62 g ai/ha, scale 0-100, read-out: Plant response rating, Pigweed): 90%; pest or weed control at 125 g/ha (pigweed; 125 g ai/ha, scale 0-100, read-out: Plant response rating, Pigweed): 90%; pest or weed control at 250 g/ha (pigweed; 250 g ai/ha, scale 0-100, read-out: Plant response rating, Pigweed): 90%; pest or weed control at 16 g/ha (chickweed [1]; 16 g ai/ha, scale 0-100, read-out: Plant response rating, Chickweed): 10%; pest or weed control at 31 g/ha (chickweed [1]; 31 g ai/ha, scale 0 to 100 (0 no effect, 100 complete control), read-out: Plant response rating, Chickweed): 10%; pest or weed control at 62 g/ha (chickweed [1]; 62 g ai/ha, scale 0 to 100 (0 no effect, 100 complete control), read-out: Plant response rating, Chickweed): 20%; pest or weed control at 125 g/ha (chickweed [1]; 125 g ai/ha, scale 0 to 100 (0 no effect, 100 complete control), read-out: Plant response rating, Chickweed): 60%; pest or weed control at 250 g/ha (chickweed [1]; 250 g ai/ha, scale 0 to 100 (0 no effect, 100 complete control), read-out: Plant response rating, Chickweed): 80%; pest or weed control at 16 g/ha (chickweed [2]; 16 g ai/ha, scale 0 (no effect) to 100 (complete control), read-out: Plant response rating, Chickweed): 0%; pest or weed control at 31 g/ha (chickweed [2]; 31 g ai/ha, scale 0-100, read-out: Plant response rating, Chickweed): 0%; pest or weed control at 62 g/ha (chickweed [2]; 62 g ai/ha, scale 0-100, read-out: Plant response rating, Chickweed): 10%; pest or weed control at 125 g/ha (chickweed [2]; 125 g ai/ha, scale 0-100, read-out: Plant response rating, Chickweed): 90%; pest or weed control at 250 g/ha (chickweed [2]; 250 g ai/ha, scale 0-100, read-out: Plant response rating, Chickweed): 95%; pest or weed control at 31 g/ha (field bindweed; [5]): 30%; pest or weed control at 62 g/ha (field bindweed; [6]): 50%; pest or weed control at 125 g/ha (field bindweed; [7]): 70%; pest or weed control at 8 g/ha (field bindweed; [8]): 15%; pest or weed control at 16 g/ha (field bindweed; [9]): 20%; pest or weed control at 16 g/ha (field poppy; 16 g ai/ha, scale 0 (no effect) to 100 (complete control), read-out: Plant response rating, Field Poppy): 0%; pest or weed control at 31 g/ha (field poppy; 31 g ai/ha, scale 0-100, read-out: Plant response rating, Field Poppy): 0%; pest or weed control at 62 g/ha (field poppy; 62 g ai/ha, scale 0-100, read-out: Plant response rating, Field Poppy): 30%; pest or weed control at 125 g/ha (field poppy; 125 g ai/ha, scale 0-100, read-out: Plant response rating, Field Poppy): 60%; pest or weed control at 250 g/ha (field poppy; 250 g ai/ha, scale 0-100, read-out: Plant response rating, Field Poppy): 100%; plant injury at 16 g/ha (winter barley; 16 g ai/ha): 0%; plant injury at 31 g/ha (winter barley; 31 g ai/ha): 0%; plant injury at 62 g/ha (winter barley; 62 g ai/ha): 0%; plant injury at 125 g/ha (winter barley; 125 g ai/ha): 0%; plant injury at 250 g/ha (winter barley; 250 g ai/ha): 0%; plant injury at 16 g/ha (spring barley [3]; 16 g ai/ha): 0%; plant injury at 31 g/ha (spring barley [3]; 31 g ai/ha): 0%; plant injury at 62 g/ha (spring barley [3]; 62 g ai/ha): 0%; plant injury at 125 g/ha (spring barley [3]; 125 g ai/ha): 5%; plant injury at 250 g/ha (spring barley [3]; 250 g ai/ha): 5%; pest or weed control at 16 g/ha (wild buckwheat; 16 g ai/ha, scale 0 (no effect) to 100 (complete control), read-out: Plant response rating, Buckwheat, Wild): 0%; pest or weed control at 31 g/ha (wild buckwheat; 31 g ai/ha, scale 0-100, read-out: Plant response rating, Buckwheat, Wild): 0%; pest or weed control at 62 g/ha (wild buckwheat; 62 g ai/ha, scale 0-100, read-out: Plant response rating, Buckwheat, Wild): 75%; pest or weed control at 125 g/ha (wild buckwheat; 125 g ai/ha, scale 0-100, read-out: Plant response rating, Buckwheat, Wild): 80%; pest or weed control at 250 g/ha (wild buckwheat; 250 g ai/ha, scale 0-100, read-out: Plant response rating, Buckwheat, Wild): 90%; pest or weed control at 31 g/ha (barnyardgrass; [5]): 0%; pest or weed control at 62 g/ha (barnyardgrass; [6]): 10%; pest or weed control at 125 g/ha (barnyardgrass; [7]): 10%; pest or weed control at 8 g/ha (barnyardgrass; [8]): 0%; pest or weed control at 16 g/ha (barnyardgrass; [9]): 0%; plant injury at 16 g/ha (spring barley [4]; 16 g ai/ha, scale 0 (no effect) to 100 (complete control), read-out: Plant response rating, Barley, Spring): 0%; plant injury at 31 g/ha (spring barley [4]; 31 g ai/ha, scale 0-100, read-out: Plant response rating, Barley, Spring): 0%; plant injury at 62 g/ha (spring barley [4]; 62 g ai/ha, scale 0-100, read-out: Plant response rating, Barley, Spring): 0%; plant injury at 125 g/ha (spring barley [4]; 125 g ai/ha, scale 0-100, read-out: Plant response rating, Barley, Spring): 0%; plant injury at 250 g/ha (spring barley [4]; 250 g ai/ha, scale 0-100, read-out: Plant response rating, Barley, Spring): 0%; pest or weed control at 16 g/ha (wild oat; 16 g ai/ha, scale 0-100, read-out: Plant response rating, Oat, Wild): 0%; pest or weed control at 31 g/ha (wild oat; 31 g ai/ha, scale 0 to 100 (0 no effect, 100 complete control), read-out: Plant response rating, Oat, Wild): 0%; pest or weed control at 62 g/ha (wild oat; 62 g ai/ha, scale 0 to 100 (0 no effect, 100 complete control), read-out: Plant response rating, Oat, Wild): 0%; pest or weed control at 125 g/ha (wild oat; 125 g ai/ha, scale 0 to 100 (0 no effect, 100 complete control), read-out: Plant response rating, Oat, Wild): 10%; pest or weed control at 250 g/ha (wild oat; 250 g ai/ha, scale 0 to 100 (0 no effect, 100 complete control), read-out: Plant response rating, Oat, Wild): 25%

Reference: US9695155B2, “Herbicidal substituted pyrimidinyloxy benzene compounds” (E. I. DU PONT DE NEMOURS AND COMPANY, priority 2013, dated 2017)
